Measured values from US20140193510A1, “Polymer-Agent Conjugates, Particles, Compositions, and Related Methods of Use” (CERULEAN PHARMA INC., priority 2009, published 2014).
“And” between values parts separate entries of the source, which are not always exact repeats. Identical values can stand only once. “Also recorded” adds a separate entry of the source. Like-named read-outs stand apart in the source and are kept apart here.

Legend:
[1] = Body weight in HCT-116 tumor bearing mice (Example 44); type: in vivo, CD-1 nude mice; settings: 30 mg/kg IV
Description: The treatments were administered IV into the tail vein at the respective dose volumes (refer to previous paragraph), beginning on post-implantation Day 13, when the mean tumor volume was 131 mm^3.

MDA-MB-435 cells = assay: In vivo efficacy, MDA-MB-435 melanoma human xenograft model (Example 46); set-up: species or system CD-1 nude mice; settings: as of Day 76, weekly x two injections
Description: MDA-MB-435 cells were grown in culture to confluency in RPMI medium containing 10% FBS and 1% penicillin/streptomycin and then resuspended in RPMI (passage 4) for implantation into mice. A volume of 0.1 mL containing 4.0×10^6 cells MDA-MB-435 cells were implanted into the mammary gland of female CD-1 nude mice on Day 1.

[2] = Body weight and ataxia in MDA-MB-435 tumor-bearing mice (Example 46); settings: for ataxia: weekly x two injections
Description: The treatments were administered IV into the tail vein at the dose volumes stated above, beginning on post-implantation Day 21, when the mean tumor volume was 150 mm^3 or, for one group, on Day 37, when the mean tumor volume for that group was 433 mm^3.

[3] = Body weight and ataxia in SK-OV-3 tumor-bearing mice (Example 45); type: in vivo, CD-1 nude mice; settings: weekly x two injections
[4] = Tolerability in normal non-tumor-bearing mice (body weight, CBC, serum chemistry, ataxia, sciatic nerve; Example 47); type: in vivo, C57BL/6 mice; settings: for ataxia: n=5
Description: Treatments were administered intravenously on a q7dx2 schedule, i.e., two treatments seven days apart (the first treatment was on Day one). The study ended on Day 14, six days after the 2nd treatment. Blood was collected for complete blood count (CBC) and serum chemistry. Leg muscles were collected so that nerve degeneration could be assessed from the sciatic nerve.

[5] = Tolerability (body weight) in B16.F10 murine melanoma model (Example 43); type: in vivo, C57BL/6 mice
B16.F10 cells [6] = assay: Efficacy in B16.F10 murine melanoma model (Example 43); type: in vivo, C57BL/6 mice; settings: q4dq3dx3 (three injections over 2 weeks), 15 mg/kg IV
Description: Refer to table for detailed description of formulations.
Tumor volume was calculated with the following equation: (width×width×length)/2 mm^3.

[7] = mouse, in vivo
Description: The stock solution was diluted further with PBS to 0.6, 1.5, 3, 4.5 and 6 mg/mL (for a corresponding dose of 6, 15, 30, 45 and 60 mg/kg) so that all the groups received the same amount of ethanol, polysorbate 80, water and PBS. […] 5) PEGylated O-acetyl-5050-PLGA nanoparticle vehicle at the highest concentration of 6 mg/mL.
The treatments were administered IV into the tail vein at a dose volume of 10 mL/kg, beginning on post-implantation Day 5, when the mean tumor volume was 55 mm^3. The treatments were administered 4 times, on Days 5, 8, 12 and 15 (biweekly×4 injections). On Day 17 post-tumor implantation, mice were euthanized by CO2 inhalation according to the procedure guideline. Blood was collected by cardiac puncture and put into ethylenediaminetetraacetic acid (EDTA) or serum separation blood collection tubes. Whole blood was analyzed on the day of collection for CBC analyses. After the blood clotted and was centrifuged, serum was frozen immediately on dry ice for serum chemistry analyses.
Tolerability was determined by changes in body weight, expressed as a percent of the initial body weight on post-implantation Day 5. […] Other indices of toxicity, complete blood count (CBC) and serum chemistry were determined from blood collected from animals that were euthanized on Day 17 by CO2 inhalation, according to the procedure guideline.

[8] = Body weight changes in A2780 tumor-bearing mice (Example 42); type: in vivo, CD-1 nude mice; settings: for % of initial body weight: Day 36
Description: This formulation was made within 30 minutes of administration to mice.
The treatments were administered 2 times, on Day 8 and Day 15 (weekly×2 injections) for n=8 mice per group. […] On Day 50, the study was ended for all remaining mice. When removed from the study, mice were euthanized by CO2 inhalation.

B16.F10 cells [9] = assay: CellTiter-Glo Luminescent Cell Viability Assay (cytotoxicity of nanoparticles); type: cell-based; settings: 24, 48 and 72 hours of incubation
Description: B16.F10 cells, grown to 85-90% confluency in 150 cm^2 flasks (passage <30), were resuspended in media (MEM-alpha, 10% HI-FBS, 1× antibiotic-antimycotic) and added to 96-well opaque-clear bottom plates at a concentration of 1500 cells/well in 200 μL/well. The cells were incubated at 37° C. with 5% CO2 for 24 hours. The following day, serial dilutions of 2× concentrated particles and 2× concentrated free drug were made in 12-well reservoirs with media to specified concentrations. The media in the plates was replaced with 100 μL of fresh media and 100 μL of the corresponding serially diluted drug. Three sets of plates were prepared with duplicate treatments. Following 24, 48 and 72 hours of incubation at 37° C. with 5% CO2, the media in the plates was replaced with 100 μL of fresh media and 100 μL of CTG solution, and then incubated for 5 minutes on a plate shaker at room temperature set to 450 rpm and allowed to rest for 15 minutes. Viable cells were measured by luminescence using a microtiter plate reader. The data was plotted as viability vs. concentration and standardized to untreated cells.

For CC(=O)O[C@@]12CO[C@@H]1C[C@H](O)[C@@]1(C)C(=O)[C@H](O)C3=C(C)[C@@H](OC(=O)[C@H](O)[C@@H](NC(=O)OC(C)(C)C)c4ccccc4)C[C@@](O)([C@@H](OC(=O)c4ccccc4)[C@H]21)C3(C)C [Free docetaxel, docetaxel], the “Maximum body weight loss” value [1] was 14%, the “TGI compared with PEGylated nanoparticles” value (MDA-MB-435 cells; listed as docetaxel) was “docetaxel at a dose of 30 mg/kg is equivalent to PEGylated nanoparticles at a dose of 60 mg/kg” and the “TGI compared with PEGylated nanoparticles” value (MDA-MB-435 cells; listed as free docetaxel) was “the treatment at a dose of 15 mg/kg resulted in the same TGI for free docetaxel and PEGylated nanoparticles; also recorded: At a dose of 30 mg/kg, the TGI for free docetaxel was greater than that for PEGylated nanoparticles; also recorded: At a dose of 60 mg/kg, free docetaxel was equivalent to PEGylated nanoparticles until the free drug group was removed from the study”. For the same molecule, the ataxia ([2]; 30 mg/kg IV) was “did not cause ataxia”, the body weight loss ([2]; 60 mg/kg IV, Days 21 and 28 (mean tumor size 150 mm^3 at start)) was “greater than 20%” and the ataxia ([2]; 60 mg/kg IV, listed as docetaxel) was “developed ataxia”. The ataxia ([2]; 60 mg/kg IV, listed as free docetaxel) was “Ataxia was observed four days after the second treatment”, the “Maximum body weight loss” value ([3]; 30 mg/kg IV) was 13% and the ataxia ([3]; 30 mg/kg IV) was “did not cause ataxia”. For the same molecule, the body weight loss ([3]; 60 mg/kg IV) was “greater than 20%”, the “body weight more than the initial on Day 14” value ([4]; 30 mg/kg IV q7dx2) was 3% and the ataxia ([4]; 30 mg/kg IV q7dx2) was 0%. For the same molecule, the “body weight more than the initial on Day 14” value ([4]; 45 mg/kg IV q7dx2) was 2%, the ataxia ([4]; 45 mg/kg IV q7dx2) was 20% and the Neutrophil mean ([4]; 60 mg/kg IV q7dx2, Day 14) was 470 cells/μL. The “weight lost after the second treatment, by the end of the study” value ([4]; 60 mg/kg IV q7dx2, Day 14) was 19%, the ataxia ([4]; 60 mg/kg IV q7dx2) was 100% and the “effect on serum chemistry parameters” value ([4]; q7dx2, Day 14) was “did not affect any serum chemistry parameter at doses up to 60 mg/kg”. The “mice observed to develop ataxia” value ([4]; q7dx2, n=5/group, dose in the value) was “no mice in the 30 mg/kg group were seen to develop ataxia or any overt signs of nerve damage; also recorded: One mouse in the 45 mg/kg group was observed to develop ataxia on Day 14; also recorded: Five out of five mice in the 60 mg/kg group was observed to develop ataxia”, the “Maximum body weight loss” value ([5]; q3dq4dx3, 15 mg/kg IV, listed as Docetaxel) was 11% and 12% and the “Maximum body weight loss” value ([5]; q4dq3dx3, 15 mg/kg IV) was 11%. For the same molecule, the “Maximum body weight loss” value ([5]; q7dx3, 30 mg/kg IV) was 11%, the “Maximum body weight loss” value ([5]; q14dx2, 60 mg/kg IV, listed as Docetaxel) was 0% and the “Maximum body weight loss” value ([5]; q14dx2, 60 mg/kg IV, listed as docetaxel) was “did not show any body weight loss”. For the same molecule, the “Maximum body weight loss” value ([5]; three times, once every week, 15 mg/kg (as worded)) was 11%, the “Tumor growth inhibition (TGI)” value (B16.F10 cells [6]) was 90% and the “effect on serum chemistry parameters” value [7] was “did not affect any serum chemistry parameter at doses up to 30 mg/kg”. The “Maximum body weight loss” value ([8]; 15 mg/kg IV weekly x 2) was 7%, the “% of initial body weight” value ([8]; 15 mg/kg) was 113±11% and the “Maximum body weight loss” value ([8]; 30 mg/kg IV weekly x 2) was 10%. For the same molecule, the “% of initial body weight” value ([8]; 30 mg/kg) was 105±9%.

For docetaxel-5050 PLGA-O-acetyl, the “growth of B16.F10 cells (viability)” value (B16.F10 cells [9]) was “inhibited the growth of B16.F10 cells in a dose and time dependent manner”.

In the case of doxorubicin 5050 PLGA amide, the “growth of B16.F10 cells (viability)” value (B16.F10 cells [9]) is reported as “inhibited the growth of B16.F10 cells in a dose and time dependent manner”.

For paclitaxel-5050 PLGA-O-acetyl, the “growth of B16.F10 cells (viability)” value (B16.F10 cells [9]) was “inhibited the growth of B16.F10 cells in a dose and time dependent manner”.
